Test results from US20220259585A1, “METHODS OF MAKING AND UTILIZING AMBER-OBLIGATED PHAGE DISPLAY LIBRARIES” (The Texas A&M University System, priority 2019, published 2022).
Numbered stars: 1 amine (or outer) side, 2 acyl side, 3 side chain; on linkers, the order of the positions; unused ones are H or OH. Square brackets hold non-standard residues; d marks the D form. Peptide text beside a SMILES is read from it. X1 = CCCC(=S)NCCCC[C@H](N[*:1])C(=O)[*:2]; Abu = CC[C@H](N)C(=O)O

How the values were obtained:
MCF-7 cells = assay: Western blot of α-tubulin K40 acetylation in MCF-7 cells (SIRT2 inhibition in cells); type: cell-based, human; details: 24 hours; for increase in acetylation level compared to S2P04 in vivo (in cells): cell line not given, cell cultures 50 μM; for α-tubulin acetylation (lysine 40): MCF-7 cells, 50 μM, versus vehicle control (0.25% DMF)
Procedure: (§1) Finally, Applicant tested the ability of S2P04, a selected peptide with intermediate potency, to inhibit SIRT2 in human embryonic kidney (HEK 293T) and breast cancer cells (MCF-7). […] Following incubation with the inhibitor, Applicant measured the acetylation level of lysine 40 of α-tubulin, a known deacetylation substrate of SIRT2.
MCF-7 (HTB-22) and HEK 293T (CRL-11268) cells purchased from American Type Culture Collection were grown in Dulbecco's Modified Eagle Medium (Invitrogen) containing 10% fetal bovine serum (Invitrogen) at 37° C. in an atmosphere of 5% CO2. Cells were seeded in a 6-well plate (Falcon 353046) at 5×10^5 viable cells/well, and grown for 24-48 hours to 60-70% confluence. […] After incubating with the inhibitors for 24 hours, the media was removed and the cells were washed twice with ice-cold PBS (Invitrogen). Cells were lysed on ice for 30 minutes in 100 μL of buffer containing 25 mM Tris pH 7.4, 150 mM NaCl, 10% glycerol, 4 mM MgCl2, 0.2 mM DTT, 1% NP-40, 25 mM nicotinamide, 5 μM trichostatin A, and 1:100 dilution of protease inhibitor cocktail (Sigma-Aldrich). The lysates were clarified by centrifugation, quantified by BCA assay (Pierce), and aliquots were stored at −80° C. Cell lysates (15 or 20 μg) were resolved by SDS-PAGE under denaturing conditions on a 12% acrylamide gel and then transferred to a 0.2 μm nitrocellulose membrane (Bio-Rad). α-tubulin acetylation (K40) and total α-tubulin were probed with primary antibody clones 6-11B-1, and B-5-1-2, respectively, which were purchased from Sigma-Aldrich (1:2,000 dilution). Primary antibodies were probed with HRP-conjugated goat anti-mouse IgG (Jackson ImmunoResearch Laboratories, Inc., 1:10,000 dilution). Chemiluminescence signals were generated with the SuperSignal™ […] Chemiluminescent substrate (ThermoFisher Scientific) and visualized with a Bio-Rad ChemiDoc XRS+ imaging system.

SIRT3 = molecular target: T1, SIRT3 (Homo sapiens, UniProt Q9NTG7); assay: Sirtuin inhibition assay with fluorogenic universal sirtuin substrate (SIRT3); type: biochemical; details: selectivity SIRT2 over SIRT3
T1 sequence (Q9NTG7 1-399): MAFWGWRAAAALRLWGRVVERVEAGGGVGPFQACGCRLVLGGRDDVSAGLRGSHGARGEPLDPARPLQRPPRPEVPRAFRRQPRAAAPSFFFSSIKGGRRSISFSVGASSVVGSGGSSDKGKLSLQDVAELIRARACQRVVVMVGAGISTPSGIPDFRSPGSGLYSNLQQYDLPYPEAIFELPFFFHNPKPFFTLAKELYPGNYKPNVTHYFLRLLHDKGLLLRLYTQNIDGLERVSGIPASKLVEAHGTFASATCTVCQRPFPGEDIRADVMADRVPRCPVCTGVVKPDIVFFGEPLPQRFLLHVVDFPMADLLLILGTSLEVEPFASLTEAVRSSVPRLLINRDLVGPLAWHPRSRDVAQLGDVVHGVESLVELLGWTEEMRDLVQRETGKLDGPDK
Procedure: Cell pellets were resuspended in 50 mL of lysis buffer (50 mM Tris pH 7.4, 150 mM NaCl, 0.1 mM PMSF, 1% Triton X-100) and incubated in the presence of 1 mg·mL^−1 of lysozyme for 30 minutes on ice. Following incubation, the resuspension was sonicated twice (1 s on 1 s off, 1 min total, 60% output) and clarified by centrifugation. To the clarified supernatant was added 3 mL of a 50% slurry of immobilized glutathione resin (Genscript) and the mixture was incubated at 4° C. for 30 minutes with end-over-end rotation. After 30 minutes the mixture was filtered through a disposable column, and the resin was washed with 50 mL of lysis buffer containing 0.1% Triton X-100. […] Enzyme concentration was determined from the absorbance at 280 nm using the calculated extinction coefficient of 80,790 M^−1·cm^−1.
Inhibition assays for SIRT1-3 were performed using a recently reported fluorogenic, universal sirtuin substrate (JPT Peptide Technologies, GmbH). […] Following incubation, the reaction was started with the addition of the substrate (5 μM) and product formation was monitored by measuring the fluorescence intensity every 20 seconds for 5 minutes (SIRT2) or 30 minutes (SIRT1 and SIRT3) in a BioTek Synergy H1 microplate reader at λEx=320 nm, λEm=408 nm (gain=130, read height=7 mm). […]

HEK 293T cells = assay: Western blot of α-tubulin K40 acetylation in HEK 293T cells (SIRT2 inhibition in cells); type: cell-based, human; details: 50 μM, 24 hours, versus vehicle control (0.25% DMF)
Procedure: as §1
MCF-7 (HTB-22) and HEK 293T (CRL-11268) cells purchased from American Type Culture Collection were grown in Dulbecco's Modified Eagle Medium (Invitrogen) containing 10% fetal bovine serum (Invitrogen) at 37° C. in an atmosphere of 5% CO2. Cells were seeded in a 6-well plate (Falcon 353046) at 5×10^5 viable cells/well, and grown for 24-48 hours to 60-70% confluence. […] After incubating with the inhibitors for 24 hours, the media was removed and the cells were washed twice with ice-cold PBS (Invitrogen). Cells were lysed on ice for 30 minutes in 100 μL of buffer containing 25 mM Tris pH 7.4, 150 mM NaCl, 10% glycerol, 4 mM MgCl2, 0.2 mM DTT, 1% NP-40, 25 mM nicotinamide, 5 μM trichostatin A, and 1:100 dilution of protease inhibitor cocktail (Sigma-Aldrich). The lysates were clarified by centrifugation, quantified by BCA assay (Pierce), and aliquots were stored at −80° C. […]

SIRT1 = molecular target: T2, SIRT1 (Homo sapiens, UniProt Q96EB6); assay: Sirtuin inhibition assay with fluorogenic universal sirtuin substrate (SIRT1); type: biochemical; details: selectivity SIRT2 over SIRT1
T2 sequence (Q96EB6 1-747): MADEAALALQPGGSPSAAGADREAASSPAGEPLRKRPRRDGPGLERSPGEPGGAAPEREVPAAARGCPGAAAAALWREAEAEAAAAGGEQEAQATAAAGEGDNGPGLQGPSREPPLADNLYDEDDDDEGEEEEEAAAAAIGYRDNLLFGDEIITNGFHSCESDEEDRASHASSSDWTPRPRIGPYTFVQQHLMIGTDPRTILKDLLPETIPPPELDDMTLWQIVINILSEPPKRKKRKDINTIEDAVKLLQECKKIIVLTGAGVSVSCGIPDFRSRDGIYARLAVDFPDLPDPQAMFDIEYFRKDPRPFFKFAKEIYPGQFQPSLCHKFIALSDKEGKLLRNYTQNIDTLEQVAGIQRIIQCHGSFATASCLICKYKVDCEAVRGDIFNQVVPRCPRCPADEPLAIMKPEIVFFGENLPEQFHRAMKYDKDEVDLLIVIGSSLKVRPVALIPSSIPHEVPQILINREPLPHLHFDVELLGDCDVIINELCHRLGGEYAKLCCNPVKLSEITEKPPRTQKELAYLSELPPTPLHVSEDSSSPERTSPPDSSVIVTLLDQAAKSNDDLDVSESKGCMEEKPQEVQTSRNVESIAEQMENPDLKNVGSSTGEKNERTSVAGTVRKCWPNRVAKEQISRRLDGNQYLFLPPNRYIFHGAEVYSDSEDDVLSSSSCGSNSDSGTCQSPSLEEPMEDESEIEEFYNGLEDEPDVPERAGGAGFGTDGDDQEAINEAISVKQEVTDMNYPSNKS
Procedure: Cell pellets were resuspended in 50 mL of lysis buffer (50 mM Tris pH 8.0, 250 mM NaCl, 10 mM imidazole, 0.1 mM phenylmethanesulfonyl fluoride (PMSF), 1% Triton X-100) and incubated with 1 mg·mL^−1 lysozyme (chicken egg white) for 30 minutes on ice. Following incubation, the resuspension was sonicated twice (1 s on, 1 s off, 1 min total, 60% output) and clarified by centrifugation. […] After 30 minutes, the mixture was filtered through a disposable column and the resin was washed with 40 mL of lysis buffer containing 0.1% Triton X-100, followed by 40 mL of lysis buffer without Triton X-100. […] Enzyme concentration was determined from the absorbance at 280 nm using the calculated extinction coefficient of 40,340 M^−1·cm^−1.
Inhibition assays for SIRT1-3 were performed using a recently reported fluorogenic, universal sirtuin substrate (JPT Peptide Technologies, GmbH). […] Following incubation, the reaction was started with the addition of the substrate (5 μM) and product formation was monitored by measuring the fluorescence intensity every 20 seconds for 5 minutes (SIRT2) or 30 minutes (SIRT1 and SIRT3) in a BioTek Synergy H1 microplate reader at λEx=320 nm, λEm=408 nm (gain=130, read height=7 mm). […] IC50 values were determined by nonlinear regression of the plot of normalized initial rate versus inhibitor concentration using GraphPad Prism.

SIRT2 = molecular target: T3, SIRT2 (Homo sapiens, UniProt Q8IXJ6); assay: Sirtuin inhibition assay with fluorogenic universal sirtuin substrate (SIRT2); type: biochemical; details: for IC50: inhibition of SIRT2, mean ± standard deviation of two independent experiments
T3 sequence (Q8IXJ6 1-389): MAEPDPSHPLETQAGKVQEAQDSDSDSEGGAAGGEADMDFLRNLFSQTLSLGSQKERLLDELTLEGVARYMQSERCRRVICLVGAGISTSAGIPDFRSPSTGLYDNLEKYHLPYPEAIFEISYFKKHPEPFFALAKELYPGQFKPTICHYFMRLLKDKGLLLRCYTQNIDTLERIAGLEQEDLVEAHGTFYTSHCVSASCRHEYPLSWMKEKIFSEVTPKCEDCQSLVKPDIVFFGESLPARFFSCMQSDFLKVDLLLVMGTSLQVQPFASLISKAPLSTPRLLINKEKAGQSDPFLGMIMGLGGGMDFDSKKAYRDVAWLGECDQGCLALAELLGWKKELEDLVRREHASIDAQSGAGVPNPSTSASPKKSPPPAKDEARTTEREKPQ
Procedure: For inhibition assays, the eluted protein was loaded onto a HiPrep 26/10 desalting column (GE Healthcare) that had been pre-equilibrated with Source 15Q buffer A (20 mM Tris pH 8.0, 50 mM NaCl, 0.2 mM DTT, 10% glycerol). The desalted protein was concentrated by ultrafiltration to 1 mL (10 kDa MWCO) and applied to a 10 mL Source 15Q column (GE Healthcare) pre-equilibrated with Source 15Q buffer A. The column was washed with 3 CV (2 mL·min^−1) of Source 15Q buffer A and then eluted with a linear gradient from 0-60% Source 15Q buffer B (20 mM Tris pH 8.0, 1 M NaCl, 0.2 mM DTT, 10% glycerol; 1 mL·min^−1) over 5 CV. The fractions containing pure SIRT2 were concentrated and stored at −80° C. Enzyme concentration was determined from the absorbance at 280 nm using the calculated extinction coefficient of 32,470 M^−1·cm^−1.
Inhibition assays for SIRT1-3 were performed using a recently reported fluorogenic, universal sirtuin substrate (JPT Peptide Technologies, GmbH). The inhibition reactions were performed in 50 μL volumes at 37° C. in black, half-area, 96-well plates. The sirtuin enzyme (0.25 μM) was pre-incubated with different concentrations of the synthetic peptides (0.0064-50 μM for SIRT1 and SIRT2, 0.5-100 μM for SIRT3) or TB (0.16-150 μM for SIRT1-3) and 1 mM NAD^+ in assay buffer (20 mM Tris pH 7.8, 150 mM NaCl, 5 mM MgCl2, 1 mM DTT) for 15 minutes. Following incubation, the reaction was started with the addition of the substrate (5 μM) and product formation was monitored by measuring the fluorescence intensity every 20 seconds for 5 minutes (SIRT2) or 30 minutes (SIRT1 and SIRT3) in a BioTek Synergy H1 microplate reader at λEx=320 nm, λEm=408 nm (gain=130, read height=7 mm). Initial rates of product formation were determined by linear regression of the plot of fluorescence intensity versus time and normalized relative to 0% activity (max inhibitor) and 100% activity (no inhibitor) controls. IC50 values were determined by nonlinear regression of the plot of normalized initial rate versus inhibitor concentration using GraphPad Prism.

| Compound | increase in acetylation level compared to S2P04 in vivo (in cells) (MCF-7 cells) | α-tubulin acetylation (lysine 40) (HEK 293T cells) | α-tubulin acetylation (lysine 40) (MCF-7 cells) | IC50 (SIRT2) [nM] | also measured |
| --- | --- | --- | --- | --- | --- |
| CCCC(=S)NCCCC[C@H](NC(=O)[C@@H](NC(=O)[C@@H](NC(=O)[C@H](CS)NC(C)=O)[C@@H](C)O)C(C)C)C(=O)N[C@H](C(N)=O)[C@@H](C)CC [Ac-S2P04-5, Ac-CTVXI-NH2] (Ac-CTV[X1]I-NH2) | neither led to a greater increase in acetylation level compared to S2P04 | – | – | – | – |
| CCCC(=S)NCCCC[C@H](NC(=O)[C@@H](NC(=O)[C@@H](NC(=O)[C@H](CS)NC(=O)[C@@H](N)[C@@H](C)O)[C@@H](C)O)C(C)C)C(=O)N[C@H](C(=O)NCC(N)=O)[C@@H](C)CC [Compound S2P04, NH2-TCTVXIG-NH2] (H-TCTV[X1]IG-NH2) | – | increase in α-tubulin acetylation | increase in α-tubulin acetylation | – | fold more potent inhibition of SIRT2 than SIRT3 (SIRT3): 152 fold; fold more potent inhibition of SIRT2 than SIRT1 (SIRT1): 2.7 fold; fold more potent than TB (SIRT2; for each enzyme (SIRT1, SIRT2, SIRT3)): at least 33 fold |
| CCCC(=S)NCCCC[C@H](NC(=O)[C@@H](NC(=O)[C@@H](NC(=O)[C@@H](N)CS)[C@@H](C)O)C(C)C)C(=O)N[C@H](C(N)=O)[C@@H](C)CC [Compound S2P04-5] (H-CTV[X1]I-NH2; N-terminus and C-terminus assumed) | – | – | – | 136 ± 29 | – |
| CCCC(=S)NCCCC[C@H](NC(=O)[C@@H](NC(=O)[C@@H](NC(=O)[C@@H](N)CC)[C@@H](C)O)C(C)C)C(=O)N[C@H](C(N)=O)[C@@H](C)CC [S2P04(Abu)-5, NH2-ZTVXI-NH2] (H-[Abu]TV[X1]I-NH2) | neither led to a greater increase in acetylation level compared to S2P04 | – | – | – | – |
| CCCC(=S)NCCCC[C@H](NC(=O)OCc1ccccc1)C(=O)Nc1ccccc1 [TB, reference compound] | – | No increase in α-tubulin acetylation | increase in α-tubulin acetylation compared to the control | 3110 | – |
